Measurements as given in US4399065A, “D-Phenylalanyl-L-prolyl-L-arginine aldehyde sulfate and process for the preparation thereof” (Patentbureau Danubia, priority 1981, dated 1983).
“And” between values parts separate entries of the source, which are not always exact repeats. Equal values may be shown once.

Columns and labels:
[1] = target: T1, U.S. Standard Human Thrombin (Homo sapiens, UniProt P00734); assay: Antithrombin activity (thrombin time) in human plasma; format: biochemical; set-up: U.S. Standard Human Thrombin; purchased NIH, Bethesda, Md., USA; settings: for Relative activity: sulfate = 100; for IC (2-fold thrombin time): pH 7.2, read-out: Amount of peptide required to increase thrombin time twofold immediately following dissolution of the peptide; for amount required for a twofold thrombin time increase relative to the tripeptide aldehyde sulfate: human plasma
Method: In order to simulate physiological conditions the antithrombin activity of the tripeptide aldehyde salts as well as that of the carbamic acid derivatives was tested also on human plasma in the following system:
0.2 ml of human citrate plasma,
0.1 ml of tris(hydroxymethyl)-amino-methane hydrochloride--hydrochloric acid buffer solution (pH 7.2) containing the peptide solution, and
0.1 ml of U.S. Standard Human Thrombin (NIH, Bethesda Md., USA), 10 Units/ml solution.

[2] = Acute toxicity at intravenous infusion in the rabbit; settings: in vivo
[3] = test system: thrombin time in the whole blood; assay: In vivo trial, dog: dose required to prolong thrombin time in the whole blood 1.5 to 2.5 fold; settings: thrombin time in whole blood prolonged 1.5 to 2.5 fold
Description: (§1) ^a The therapeutic effect is characterized by the dose required to […]

mice = assay: Acute toxicity in mice; format: in vivo; settings: acute toxicity
Acute toxicity in mice = format: in vivo; settings: mouse, in vivo
[4] = test system: thrombin time in the whole blood; assay: In vivo trial of the tripeptide aldehyde derivatives, summary statements; set-up: species or system rabbit, dog; settings: for oral dose at which therapeutic effect may be achieved: species not given
Description: as §1

[5] = target: T1, U.S. Standard Human Thrombin; assay: Antithrombin activity (thrombin time) of peptide solutions stored in isotonic salt solution, fibrinogen system; settings: for Relative activity after 0 days: 10 mg/ml, 100 = fivefold relative thrombin time at 3.5 × 10^-7 M
Method: In the course of our tests the peptides were dissolved in concentrations of 10 mg/ml, stored at 5° C., and the ensuing change in antithrombin activity registered for 180 days. The potency was assayed in a system containing the following components:
0.2 ml of 0.5 percent bovine fibrinogen in a 0.9 percent solution of sodium chloride,
0.1 ml of tris(hydroxymethyl)-amino-methane hydrochloride--hydrochloric acid buffer (pH 7.2) containing the peptide solution
0.1 ml of U.S. Standard Human Thrombin (NIH, Bethesda, Md., USA), 10 Unit/ml solution.
The activity of the tripeptide aldehyde solution was arbitrarily set up as 100, if the reaction mixture induced a fivefold relative thrombin time at a final concentration of 3.5×10^-7 M (in the case of the tripeptide aldehyde sulfate at 0.175 μg/ml).

[6] = test system: thrombin time in the whole blood; assay: In vivo trial, rabbit: dose required to prolong thrombin time in the whole blood 1.5 to 2.5 fold; settings: thrombin time in whole blood prolonged 1.5 to 2.5 fold
Description: as §1

[7] = Stability of peptide aldehyde salts/derivatives in aqueous solution and in solid form; format: physicochemical
thrombin = settings: known from Hungarian Pat. No. 169,870 / Belgian Pat. No. 880,844; cited from earlier work
Solubility = format: physicochemical
[8] = cited from earlier work
[9] = ip, mice, i.p., read-out: LD50 i.p.
[10] = iv, mice, i.v. bolus, read-out: LD50 i.v. bolus
[11] = po, mice, p.o., read-out: LD50 p.o.

| Compound | Relative activity ([1]; human citrate plasma) | IC (2-fold thrombin time) [1] [µg/mL] | Dose required for therapeutic effect, i.v. infusion, dog [3] [mg/kg/h] | Dose required for therapeutic effect, p.o., dog [3] [mg/kg] | Dose required for therapeutic effect, s.c., dog [3] [mg/kg] | LD50 (Acute toxicity in mice; [11]) [mg/kg] | Dose required for therapeutic effect, p.o., rabbit [6] [mg/kg] | Dose required for therapeutic effect, s.c., rabbit [6] [mg/kg] | amount required for a twofold thrombin time increase relative to the tripeptide aldehyde sulfate [1] | activity starting to decrease (in words) ([5]; isotonic salt solution, 5° C.) | further results |
| --- | --- | --- | --- | --- | --- | --- | --- | --- | --- | --- | --- |
| N=C(N)NCCC[C@@H](C=O)NC(=O)[C@@H]1CCCN1C(=O)[C@H](N)Cc1ccccc1.O=S(=O)(O)O [D-Phe-Pro-Arg-H.H2 SO4, D-Phenylalanyl-L-prolyl-L-arginine aldehyde sulfate] | 100 | 0.02 | 0.5 | 25 | 6.0 | > 2000 | 25 | 6.0 | – | – | LD50 [2]: 58 mg/kg; toxicity data compared with the acetate and the carbamic acid derivative (mice): more favourable than those of either the acetate or the carbamic acid derivative; LD50 (Acute toxicity in mice; [9]): 230 mg/kg; LD50 (Acute toxicity in mice; [10]): 45 mg/kg; LD50 (Acute toxicity in mice; po, oral administration, read-out: acute toxicity at oral administration): 2000 mg/kg; LD50 (Acute toxicity in mice; sc, mice, s.c., read-out: LD50 s.c.): 1800 mg/kg; antithrombin potency in vivo ([4]; in vivo): significant antithrombin potency in vivo; efficacy at intravenous and subcutaneous application ([4]; intravenous and subcutaneous, compared with heparin): in the range of that of heparin; oral dose at which therapeutic effect may be achieved [4]: 25 mg/kg; Relative activity after 0 days ([5]; isotonic salt solution, 5° C.): 100; retaining its antithrombin activity ([5]; isotonic salt solution, 5° C.): ≥ 90 days; IC (5-fold thrombin time) ([5]; pH 7.2, read-out: final concentration inducing a fivefold relative thrombin time (activity set up as 100)): 0.35 µM and 0.175 µg/mL; stable in aqueous medium ([5]; prolonged stability trials, aqueous medium): ≥ 180 days; failed to lose activity in solid form ([5]; solid form): ≥ 6 months; Dose required for therapeutic effect, i.v. infusion, rabbit [6]: 1.0 mg/kg/h |
| CC(=O)O.N=C(N)NCCC[C@@H](C=O)NC(=O)[C@@H]1CCCN1C(=O)[C@H](N)Cc1ccccc1 [D-Phe-Pro-Arg-H.2 CH3 COOH, D-phenylalanyl-L-prolyl-L-arginine aldehyde acetate] | – | 0.065 to 0.14 | – | 100 | – | 960 | 100 | – | manifold | already after several days | LD50 (Acute toxicity in mice; [9]): 38 mg/kg; LD50 (Acute toxicity in mice; [10]): 9 mg/kg; antithrombin potency upon standing in aqueous solution [7]: varying and rapidly decreasing; thrombin inhibition (thrombin): potent thrombin inhibitors |
| CC(=O)O.Cl.N=C(N)NCCC[C@@H](C=O)NC(=O)[C@@H]1CCCN1C(=O)[C@H](N)Cc1ccccc1 [D-Phe-Pro-Arg-H.2HCl, D-phenylalanyl-L-prolyl-L-arginine aldehyde acetate and hydrochloride] | – | 0.06 to 0.13 | – | 100 | – | – | – | – | manifold | – | activity starting to decrease after ([5]; isotonic salt solution, 5° C.): > 5 days; antithrombin potency upon standing in aqueous solution [7]: varying and rapidly decreasing |
| N=C(N)NCCC[C@@H](C=O)NC(=O)[C@@H]1CCCN1C(=O)[C@H](N)Cc1ccccc1 [tosylate] | – | – | – | – | – | – | – | – | – | – | change of antithrombin activity compared with the acetate ([5]; isotonic salt solution, Table 1 footnote d): changing similarly to that of the acetate |
| N=C(N)NCCC[C@@H](C=O)NC(=O)[C@@H]1CCCN1C(=O)[C@H](N)Cc1ccccc1 [citrate] | – | – | – | – | – | – | – | – | – | already after several days | – |
| N=C(NCCC[C@@H](C=O)NC(=O)[C@@H]1CCCN1C(=O)[C@H](N)Cc1ccccc1)NC(=O)O [D-Phe-Pro-Arg/COOH/-H, D-phenylalanyl-L-prolyl-N^G -carboxy-L-arginine aldehyde] | 45 | 0.042 | 3.0 | 50 | 6.0 | 1200 | 50 | 10.0 | twofold | already after several days | solubility (Solubility): poor solubility; oral dose at which therapeutic effect may be achieved [4]: 50 mg/kg; Relative activity after 0 days ([5]; isotonic salt solution, 5° C.): 100; potency after several days ([7]; aqueous buffer solution, after several days): significant reduction in potency; activity after several months in solid form ([7]; solid form, after several months): loss of original activity even in solid form; thrombin inhibition (thrombin): potent thrombin inhibitors |
| Heparin | 19 | – | 0.5 | – | 2.0 | – | – | 5.0 | – | – | Amount of peptide required to increase thrombin time twofold immediately following dissolution of the peptide ([1]; human citrate plasma, pH 7.2, amount in the reaction mixture): 0.105 µg/mL; activity given orally ([8]; oral): practically inactive at oral application; time until effect may be registered (in words) ([8]; primarily i.v. infusion): rapidly, within a short period of time; Dose required for therapeutic effect, i.v. infusion, rabbit [6]: 0.6 mg/kg/h |
